Consider 22 compounds from publication PMC3565011 (Xenobiotica; the fate of foreign compounds in biological …, 2011).

The target in data set [1] is CYP3A4 (Homo sapiens, UniProt P08684). In words: Midazolam 1'-hydroxylation. In kind it is in vitro ADME. To be noted: for % inhibition (10 µM) of CYP3A4, class / % inhibition (10 µM) of CYP3A4 / IC50: midazolam hydroxylation; for % inhibition (10 µM) of CYP3A4: average of triplicates ± S.D.; for IC50: read-out: IC50 CYP3A4.
The next data set deals with CYP2D6 (Homo sapiens, UniProt P10635). In words: Dextromethorphan demethylation. In kind it is in vitro ADME.
CYP2D6, sequence (P10635 whole entry): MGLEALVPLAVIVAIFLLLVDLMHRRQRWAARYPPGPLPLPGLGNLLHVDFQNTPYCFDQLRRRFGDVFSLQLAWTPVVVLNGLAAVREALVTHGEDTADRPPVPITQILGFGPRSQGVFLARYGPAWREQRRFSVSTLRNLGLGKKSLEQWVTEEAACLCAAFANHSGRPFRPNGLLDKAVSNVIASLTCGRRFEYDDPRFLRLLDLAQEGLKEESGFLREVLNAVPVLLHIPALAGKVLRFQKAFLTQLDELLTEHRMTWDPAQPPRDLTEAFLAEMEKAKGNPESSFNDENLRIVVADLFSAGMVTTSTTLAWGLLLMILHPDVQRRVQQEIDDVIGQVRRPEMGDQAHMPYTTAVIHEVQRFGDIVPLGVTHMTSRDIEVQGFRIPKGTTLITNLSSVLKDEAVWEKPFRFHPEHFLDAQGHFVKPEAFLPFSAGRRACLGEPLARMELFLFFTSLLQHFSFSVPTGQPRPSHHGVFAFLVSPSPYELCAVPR
Data set [2] relates to tamoxifen 4-hydroxylation (4-OH TAM formation) by human liver microsomes. In words: in vitro. To be noted: female, pH 7.4.
Data set [3] has as its system tamoxifen N-demethylation (N-desmethyl TAM formation) by human liver microsomes. In words: in vitro. The following applies: female, pH 7.4.
The subject of data set [4] is tamoxifen α-hydroxylation (α-OH TAM formation) by human liver microsomes. In words: in vitro. The following applies: female, pH 7.4.
In data set [5] the test system is CYP3A4. To be noted: cited from earlier work.

CYP3A4 (Homo sapiens, UniProt P08684), sequence (P08684 whole entry): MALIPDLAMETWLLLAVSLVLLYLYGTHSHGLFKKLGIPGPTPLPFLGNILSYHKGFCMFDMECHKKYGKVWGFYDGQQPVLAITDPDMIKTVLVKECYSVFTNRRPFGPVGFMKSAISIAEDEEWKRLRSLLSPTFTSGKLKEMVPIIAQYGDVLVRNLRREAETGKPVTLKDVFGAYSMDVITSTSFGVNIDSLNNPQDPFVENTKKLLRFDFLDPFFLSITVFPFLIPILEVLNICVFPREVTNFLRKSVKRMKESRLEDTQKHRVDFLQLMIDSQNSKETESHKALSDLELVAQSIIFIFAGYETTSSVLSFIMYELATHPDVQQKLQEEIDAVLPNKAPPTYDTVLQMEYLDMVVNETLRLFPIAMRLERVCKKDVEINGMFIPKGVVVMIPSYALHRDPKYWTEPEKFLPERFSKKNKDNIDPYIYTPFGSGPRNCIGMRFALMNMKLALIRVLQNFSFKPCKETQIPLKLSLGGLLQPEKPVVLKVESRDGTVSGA

“1-α-hydroxycimigenol-3-O-β-D-xylopyranoside [Compound 21]”: the “% inhibition (10 µM) of CYP3A4, class” value at CYP3A4 [1] is listed as “N/A (N/A, Not active = < 50% inhibition at 10 µM)”. As to `CC(=O)O[C@@H]1C[C@@]23C[C@@]24CC[C@H](O[C@@H]2OC[C@@H](O)[C@H](O)[C@H]2O)C(C)(C)[C@@H]4CC[C@H]3[C@]2(C)C[C@@H]3O[C@@]4(C[C@@H](C)[C@@H]3[C@@]12C)OC[C@@]1(C)O[C@@H]41` [Compound 1, 23-epi-26-deoxyactein], the “activity against CYP3A4 (in words)” value at CYP3A4 [1] is “inactive”. The “activity against CYP2D6 (in words)” value at CYP2D6 is “inactive”. On to `C=C(C)[C@@H]1O[C@@]23O[C@@H]1C[C@@H](C)[C@@H]2[C@@]1(C)[C@H](OC(C)=O)C[C@@]24C[C@@]25CC[C@H](O[C@@H]2OC[C@@H](O)[C@H](O)[C@H]2O)C(C)(C)[C@@H]5CC[C@H]4[C@]1(C)[C@H]3O` [Compound 7, Cimiracemoside K], for which, at CYP3A4 [1], the “% inhibition (10 µM) of CYP3A4” value came to 85.2±0.3% and the IC50 came to 3.8 ± 0.5 µM. On to `CC(=O)O[C@@H]1C[C@@]23C[C@@]24CC[C@H](O[C@@H]2OC[C@@H](O)[C@H](O)[C@H]2O)C(C)(C)[C@@H]4CC[C@H]3[C@]2(C)C[C@@H]3O[C@]4(C[C@@H](C)[C@@H]3[C@@]12C)OC[C@@]1(C)O[C@@H]41` [Compound 4, 26-deoxyactein], for which, at CYP3A4 [1], the “activity against CYP3A4 (in words)” value was “inactive” and the “% inhibition (10 µM) of CYP3A4, class” value was “N/A (N/A, Not active = < 50% inhibition at 10 µM)”. The “activity against CYP2D6 (in words)” value at CYP2D6 is “inactive”.

For the compound `C[C@H](CC(=O)[C@@H]1OC1(C)C)[C@H]1C(=O)C[C@@]2(C)C3=CC[C@H]4C(C)(C)[C@@H](O[C@@H]5OC[C@@H](O)[C@H](O)[C@H]5O)CC[C@@]45C[C@@]35[C@@H](O)C[C@]12C` [Compound 17, Cimicifugoside H-1], at CYP3A4 [1], the “% inhibition (10 µM) of CYP3A4, class” value was “N/A (N/A, Not active = < 50% inhibition at 10 µM)”. For the compound `CC(=O)O[C@H]1CO[C@@H](O[C@H]2CC[C@]34C[C@]35CC[C@]3(C)[C@@H]([C@H](C)C[C@@H](OC(C)=O)[C@@H]6OC6(C)C)C(=O)[C@H](O)[C@@]3(C)[C@@H]5CC[C@H]4C2(C)C)[C@H](O)[C@H]1O` [Compound 16, Cimiracemoside L], at CYP3A4 [1], the “% inhibition (10 µM) of CYP3A4” value is recorded as 94.2±0.3% and the 50% inhibitory concentration (IC50) turned out to be 2.4 ± 0.2 µM. `CC(=O)O[C@@H]1C[C@@]23C[C@@]24CC[C@H](O[C@@H]2OC[C@@H](O)[C@H](O)[C@H]2O)C(C)(C)[C@@H]4CC[C@H]3[C@]2(C)C[C@@H]3O[C@]4(C[C@@H](C)[C@@H]3[C@@]12C)OC(=O)[C@]1(C)O[C@H]41` [Compound 5, Cimiracemoside P]: at CYP3A4 [1], the “% inhibition (10 µM) of CYP3A4, class” value is on record as “N/A (N/A, Not active = < 50% inhibition at 10 µM)”. Still for that read-out and setting: to `CC(=O)O[C@@H]1C[C@@]23C[C@@]24CC[C@H](O[C@@H]2OC[C@H](O)[C@H](O)[C@H]2O)C(C)(C)[C@@H]4CC[C@H]3[C@]2(C)C[C@@H]3O[C@]4(C[C@@H](C)[C@@H]3[C@@]12C)OC[C@]1(C)O[C@H]41` [Compound 13, Cimiracemoside N] belongs “N/A (N/A, Not active = < 50% inhibition at 10 µM)”. Same read-out and setting: as for “25-anhydrocimigenol-3-O-β-arabinopyranoside [Compound 10]”, the entry is “N/A (N/A, Not active = < 50% inhibition at 10 µM)”. Same read-out and setting: to “25-O-acetylcimigenol-3-O-α-arabinopyranoside [Compound 9]” belongs “N/A (N/A, Not active = < 50% inhibition at 10 µM)”. Consider `C=C(C)[C@@H]1O[C@@]23O[C@@H]1C[C@@H](C)[C@@H]2[C@@]1(C)[C@H](OC(C)=O)C[C@@]24C[C@@]25CC[C@H](O[C@@H]2OC[C@H](O)[C@H](O)[C@H]2O)C(C)(C)[C@@H]5CC[C@H]4[C@]1(C)[C@H]3O` [Compound 6, Cimiracemoside J], for which the “% inhibition (10 µM) of CYP3A4, class” value on CYP3A4 [1] is “N/A (N/A, Not active = < 50% inhibition at 10 µM)”. Turning to “25-O-acetyl-7-β-hydroxycimigenol-3-O-β-xylopyranoside [Compound 22]”, on CYP3A4 [1], the “% inhibition (10 µM) of CYP3A4” value was determined as 61.8±0.2%. Still for that read-out and setting: to “7-β-hydroxycimigenol aglycone [Compound 20]” belongs 64.9±1.1%. `CC(=O)O[C@@H]1CO[C@@H](O[C@H]2CC[C@]34C[C@]35C[C@@H](OC(C)=O)[C@]3(C)[C@H]6[C@H](C)C[C@]7(OC(O)[C@]8(C)O[C@H]78)O[C@H]6C[C@@]3(C)[C@@H]5CC[C@H]4C2(C)C)[C@H](O)[C@H]1O` (stereo partly drawn) [Compound 15, Cimiracemoside O]: on CYP3A4 [1], the “% inhibition (10 µM) of CYP3A4” value is on record as 74.8±0.1% and the IC50 came to 5.1 ± 0.4 µM. In the case of `CC(=O)O[C@@H]1C[C@@]23C[C@@]24CC[C@H](O[C@@H]2OC[C@@H](O)[C@H](O)[C@H]2O)C(C)(C)[C@@H]4CC[C@H]3[C@]2(C)C[C@@H]3O[C@]4(C[C@@H](C)[C@@H]3[C@@]12C)O[C@H](O)[C@@]1(C)O[C@@H]41` [Compound 11, Actein (R,S)], on CYP3A4 [1], the “activity against CYP3A4 (in words)” value was “inactive” and the “% inhibition (10 µM) of CYP3A4, class” value is recorded as “N/A (N/A, Not active = < 50% inhibition at 10 µM)”. In addition, at CYP2D6, the “activity against CYP2D6 (in words)” value was “inactive”. Regarding `COc1ccc2c(c1OC)CN(C)CCc1cc3c(cc1C(=O)C2)OCO3` [Allocryptopine, allocryptopine], the inhibition at 20 min, 10 µM was 57.9 ± 4.3% in data set [2], 16.8 ± 2.8% in data set [3] and less than 10% in data set [4].

For the compound “25-O-acetylcimigenol-3-O-β-xylopyranoside [Compound 8]”, the “% inhibition (10 µM) of CYP3A4, class” value at CYP3A4 [1] is given as “N/A (N/A, Not active = < 50% inhibition at 10 µM)”.

For the compound “23-O-acetylshengmanol-3-β-D-xylopyranoside [Compound 12]”, in the data set on CYP3A4 [5], the “CYP3A4 inhibition (in words)” value is “weak inhibitor”. Consider “25-anhydrocimigenol-3-O-β-xylopyranoside [Compound 3]”, for which the “% inhibition (10 µM) of CYP3A4, class” value on CYP3A4 [1] was “N/A (N/A, Not active = < 50% inhibition at 10 µM)”.

On to `CC(=O)O[C@H]1[C@H](O[C@H]2CC[C@]34C[C@]35C[C@@H](OC(C)=O)[C@]3(C)[C@H]6[C@H](C)C[C@@]7(O[C@H]6C[C@@]3(C)[C@@H]5CC[C@H]4C2(C)C)O[C@H](O)[C@@]2(C)O[C@@H]72)OC[C@@H](O)[C@@H]1O` [Compound 14, 2’-O-acetyl-Actein], for which the “% inhibition (10 µM) of CYP3A4, class” value at CYP3A4 [1] was “N/A (N/A, Not active = < 50% inhibition at 10 µM)”. For “1-α-hydroxycimigenol-3-O- α-L-arabinopyranoside [Compound 19]”, the “% inhibition (10 µM) of CYP3A4, class” value on CYP3A4 [1] was “N/A (N/A, Not active = < 50% inhibition at 10 µM)”. For `CN1CCc2cc3c(cc2C(=O)Cc2ccc4c(c2C1)OCO4)OCO3` [Protopine, protopine], the Ki at CYP2D6 turned out to be 0.078 µM.
